The record followed here is ChEMBL document CHEMBL1212867, “Anhydrotetracycline-peptide conjugates as representatives for ligand-based transactivating systems” (Bioorg Med Chem, 2010).

Assay [1] relates to HeLa. Nature of the assay: Transactivation of reverse transactivator Tet repressor-S3 expressed in human HeLa cells at 5 uM after 24 hrs by luciferase reporter gene assay relative to anhydrotetracycline. In kind it is cell-based. Background: Reporter assays use an easily measured gene product as a stand-in for the process of interest.
Assay [2] concerns HeLa. Nature of the assay: Transactivation of Reverse transactivator Tet repressor-S3 SL439, FG442, SL444 and FA475 mutant expressed in human HeLa cells at 5 uM after 24 hrs by luciferase reporter gene assay relative to untreated basal level. In kind it is cell-based.

Non-standard residues stand in square brackets, D forms with d. Residues, ends and D or L forms follow the SMILES beside them. *: point of attachment. X1 = Cc1c2c(c(O)c3c(O)c(N*)ccc13)C(=O)[C@]1(O)C(=O)C(C(N)=O)=C(O)[C@@H](N(C)C)[C@@H]1C2; AEEEA = NCCOCCOCCOCC(=O)O

Turning to `CSCC[C@H](NC(=O)[C@H](CC(=O)O)NC(=O)[C@H](CC(C)C)NC(=O)[C@H](CC(=O)O)NC(=O)[C@H](Cc1ccccc1)NC(=O)[C@H](CC(=O)O)NC(=O)CNC(=O)[C@H](CC(C)C)NC(=O)[C@H](CCSC)NC(=O)[C@H](CC(=O)O)NC(=O)[C@H](CC(C)C)NC(=O)[C@H](CC(=O)O)NC(=O)[C@H](Cc1ccccc1)NC(=O)[C@H](CC(=O)O)NC(=O)COCCOCCOCCN)C(=O)N[C@@H](CC(C)C)C(=O)NCC(=O)NCCOCCOCCOCC(=O)Nc1ccc2c(C)c3c(c(O)c2c1O)C(=O)[C@]1(O)C(=O)C(C(N)=O)=C(O)[C@@H](N(C)C)[C@@H]1C3` (H-[AEEEA]DFDLDMLGDFDLDMLG[AEEEA]-X1), the Activity in the assay on HeLa [1] is 190%. In addition, in the assay on HeLa [2], the fold change (FC) came out at 9.

For the molecule `CSCC[C@H](NC(=O)[C@H](CC(=O)O)NC(=O)[C@H](CC(C)C)NC(=O)[C@H](CC(=O)O)NC(=O)[C@H](Cc1ccccc1)NC(=O)[C@@H](N)CC(=O)O)C(=O)N[C@@H](CC(C)C)C(=O)NCC(=O)NCCOCCOCCOCC(=O)Nc1ccc2c(C)c3c(c(O)c2c1O)C(=O)[C@]1(O)C(=O)C(C(N)=O)=C(O)[C@@H](N(C)C)[C@@H]1C3` (H-DFDLDMLG[AEEEA]-X1), the Activity with HeLa [1] came to 150%.

In the case of `Cc1c2c(c(O)c3c(O)cccc13)C(=O)[C@]1(O)C(=O)C(C(N)=O)=C(O)[C@@H](N(C)C)[C@@H]1C2`, in the assay with HeLa [2], the fold change (FC) was 3.
